Assay results as given in patent US20060241168A1, “Antidepressant” (priority 2002, published 2006).

Test system: Akt
Assay: Akt phosphorylation in rat hippocampus glia mixed culturing system (immunoprecipitation, Western blotting)
Type: cell-based
Conditions: rat hippocampus mixed culture; added at 300 nM or 100 nM; after one day and three days
Description: The hippocampus was removed from a 3 day-old rat and the cells were dispersed in a nerve dispersing solution. After the number of the cells was counted, the cells were suspended in a DMEM/F-12 medium containing 10% FCS (Embryo Max) and was then seeded on a 6-well plate coated with type I collagen at a density of 3×10^5 cells/cm^2. After cultured for 4 days, the medium was replaced with a N2 supplement-containing medium. Compound (I) (Compound 17a was used; hereinafter referred to Compound A) was added to a well at 300 nM or 100 nM, and IGF-1 was added to a well at 100 ng/mL. One day or three days after the addition, the cells were collected using Lysis Buffer containing protease inhibitor cocktail. Each cell suspension was centrifuged at 20000 rpm for 30 minutes and the supernatant was collected. An anti-5G3 Akt antibody was added to the supernatant to immunoprecipitate intracellular Akt. The resulting precipitate was subjected to SDS-PAGE using a 5-20% polyacrylamide gel and then to Western blotting. An anti-Phospho Akt antibody as a primary antibody and an HRP-linked anti-Rabbit antibody as a secondary antibody were used to detect the bands of phosphorylated Akt (Ser473 and Thr308). In order to detect the total Akt, the PVDF membrane was immersed in a reprobe buffer and permeated at 55° C. for 20 minutes to peel the antibodies. […]

COc1cc2c(cc1OC)CN(c1c(C)c(C)c3c(c1C)[C@@H](c1ccc(C)cc1)C(C)(C)O3)C2 [Compound A]
phosphorylation of Akt at Ser473: promoted phosphorylation | phosphorylation of Akt at Thr308: promoted phosphorylation
